Columns and labels:
Type in all cases: biochemical
[1] = target: JNK2 (Homo sapiens, UniProt P45984); assay: In vitro JNK2 inhibition (Table 1)
Description: (§1) In vitro assays for the determination of JNK activities are known in the art and exemplary assay formats are described herein.
(§2) IC50 values in Table 1 were determined using the procedures as described in U.S. Pat. No. 8,450,353.

[2] = target: JNK1 (Homo sapiens, UniProt P45983); assay: In vitro JNK1 inhibition (Table 1)
Description: as §1, §2

[3] = target: JNK3 (Homo sapiens, UniProt P53779); assay: In vitro JNK3 inhibition (Table 1)
Chain of JNK3 (P53779 whole entry, species assumed): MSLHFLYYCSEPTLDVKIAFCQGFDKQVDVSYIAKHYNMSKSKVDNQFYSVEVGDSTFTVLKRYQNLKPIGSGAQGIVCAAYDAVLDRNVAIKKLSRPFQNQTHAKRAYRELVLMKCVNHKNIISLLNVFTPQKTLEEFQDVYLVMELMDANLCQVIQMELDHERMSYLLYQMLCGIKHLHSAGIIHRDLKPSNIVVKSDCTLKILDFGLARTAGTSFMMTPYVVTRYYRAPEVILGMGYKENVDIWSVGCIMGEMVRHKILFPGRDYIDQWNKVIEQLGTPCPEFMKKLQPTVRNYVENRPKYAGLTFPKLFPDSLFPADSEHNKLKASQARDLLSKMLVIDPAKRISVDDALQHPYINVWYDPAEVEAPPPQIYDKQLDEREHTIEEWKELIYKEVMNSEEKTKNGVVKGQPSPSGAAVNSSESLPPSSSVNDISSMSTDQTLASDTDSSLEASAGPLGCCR
Description: as §1, §2

Chain of JNK2 (P45984 whole entry, species assumed): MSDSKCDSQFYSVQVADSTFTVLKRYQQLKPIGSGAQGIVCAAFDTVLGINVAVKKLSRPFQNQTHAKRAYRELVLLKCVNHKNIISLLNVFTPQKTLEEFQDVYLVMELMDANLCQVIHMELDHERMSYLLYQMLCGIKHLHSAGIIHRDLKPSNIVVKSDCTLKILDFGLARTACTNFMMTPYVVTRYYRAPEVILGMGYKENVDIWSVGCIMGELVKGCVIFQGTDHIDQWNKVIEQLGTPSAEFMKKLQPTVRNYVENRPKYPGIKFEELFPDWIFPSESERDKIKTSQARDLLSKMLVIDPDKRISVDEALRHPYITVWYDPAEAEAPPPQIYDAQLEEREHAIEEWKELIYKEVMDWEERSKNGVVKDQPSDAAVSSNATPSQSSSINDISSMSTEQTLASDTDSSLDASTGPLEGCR
Chain of JNK1 (P45983 whole entry, species assumed): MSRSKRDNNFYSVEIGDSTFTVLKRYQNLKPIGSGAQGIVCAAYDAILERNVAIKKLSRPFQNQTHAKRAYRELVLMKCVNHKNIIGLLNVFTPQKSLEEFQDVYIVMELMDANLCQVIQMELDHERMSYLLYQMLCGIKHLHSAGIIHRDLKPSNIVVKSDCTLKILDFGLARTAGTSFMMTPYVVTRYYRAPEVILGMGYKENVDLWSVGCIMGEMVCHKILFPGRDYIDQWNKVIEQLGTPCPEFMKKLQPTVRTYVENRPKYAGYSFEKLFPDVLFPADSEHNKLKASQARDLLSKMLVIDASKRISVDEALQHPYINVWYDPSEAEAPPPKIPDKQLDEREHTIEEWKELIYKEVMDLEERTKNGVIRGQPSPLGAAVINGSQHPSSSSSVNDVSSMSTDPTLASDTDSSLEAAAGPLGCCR

Row | IC50 [1] [nM] | IC50 [2] [nM] | IC50 [3] [nM] | SMILES
1 | < 100 | < 100 | < 100 | Cn1cnc(-c2c(Cl)csc2NC(=O)CN2C(=O)CCc3ncccc32)n1 [N-(4-chloro-3-(1-methyl-1H-1,2,4-triazol-3-yl)thiophen-2-yl)-2-(2-oxo-3,4-dihydro-1,5-naphthyridin-1(2H)-yl)acetamide]
2 | < 100 | < 100 | < 100 | Cn1cnc(-c2c(C#N)csc2NC(=O)Cc2cccc3ncccc23)n1 [N-(4-cyano-3-(1-methyl-1H-1,2,4-triazol-3-yl)thiophen-2-yl)-2-(quinolin-5-yl)acetamide]
3 | 100 to 10000 | 100 to 10000 | 100 to 10000 | O=C(Cn1c(=O)ccc2cc(C(F)(F)F)ccc21)N(CCCN1CCCC1)c1scc(Cl)c1-c1nc[nH]n1 [N-(4-chloro-3-(1H-1,2,4-triazol-3-yl)thiophen-2-yl)-2-(2-oxo-6-(trifluoromethyl)quinolin-1(2H)-yl)-N-(3-(pyrrolidin-1-yl)propyl)acetamide]
4 | < 100 | < 100 | < 100 | C#Cc1ccc2c(ccc(=O)n2CC(=O)Nc2scc(Br)c2-c2ncn[nH]2)c1 [N-(4-bromo-3-(1H-1,2,4-triazol-5-yl)thiophen-2-yl)-2-(6-ethynyl-2-oxoquinolin-1(2H)-yl)acetamide]
